Test results taken from patent publication US8952024B2, “Herbicidal pyrimidone derivatives” (E I du Pont de Nemours and Company, priority 2009, dated 2015).

Columns and labels:
Format in all cases: in vivo
rice (Oryza sativa) = assay: Test B flooded paddy test; conditions: for Plant response rating, Flood, Rice: 250 g ai/ha, flooded paddy test, visual rating on 0 to 100 scale (0 no effect, 100 complete control) after 13 to 15 days; for Plant response rating, Rice: Flood (flooded paddy test), 13 to 15 days
Source text: (§1) Plant species in the flooded paddy test consisted of rice (Oryza sativa), umbrella sedge (Cyperus difformis), ducksalad (Heteranthera limosa) and barnyardgrass (Echinochloa crus-galli) grown to the 2-leaf stage for testing. At the time of treatment, test pots were flooded with water to 3 cm above the soil surface, treated by application of test compounds directly to the paddy water, and then maintained at that water depth for the duration of the test.
(§2) Treated plants and controls were maintained in a greenhouse for 13 to 15 days, after which time all treated plants were visually evaluated and compared to controls. Plant response ratings, summarized in Table B, are based on a scale of 0 to 100 where 0 is no effect and 100 is complete control. A dash (-) response means no test result.

[1] = system: ducksalad (Heteranthera limosa); assay: Test B flooded paddy test; conditions: for Plant response rating, Flood, Ducksalad: 250 g ai/ha, flooded paddy test, visual rating on 0 to 100 scale (0 no effect, 100 complete control) after 13 to 15 days; for Plant response rating, Ducksalad: Flood (flooded paddy test), 13 to 15 days
Source text: as §1, §2

[2] = system: umbrella sedge (Cyperus difformis); assay: Test B flooded paddy test; conditions: for Plant response rating, Flood, Sedge, Umbrella: 250 g ai/ha, flooded paddy test, visual rating on 0 to 100 scale (0 no effect, 100 complete control) after 13 to 15 days; for Plant response rating, Sedge, Umbrella: Flood (flooded paddy test), 13 to 15 days
Source text: as §1, §2

[3] = system: barnyardgrass (Echinochloa crus-galli); assay: Test B flooded paddy test; conditions: for Plant response rating, Flood, Barnyardgrass: 250 g ai/ha, flooded paddy test, visual rating on 0 to 100 scale (0 no effect, 100 complete control) after 13 to 15 days; for Plant response rating, Barnyardgrass: Flood (flooded paddy test), 13 to 15 days
Source text: as §1, §2

[4] = system: large crabgrass (Digitaria sanguinalis); assay: Test A pre-/postemergence plant response
Source text: (§3) Seeds of barnyardgrass (Echinochloa crus-galli), large crabgrass (Digitaria sanguinalis), giant foxtail (Setaria faberii), morningglory (Ipomoea spp.), pigweed (Amaranthus retroflexus), velvetleaf (Abutilon theophrasti), wheat (Triticum aestivum) and corn (Zea mays) were planted into a blend of loam soil and sand and treated preemergence with a directed soil spray using test chemicals formulated in a non-phytotoxic solvent mixture which included a surfactant. At the same time these species were also treated with postemergence applications of test compounds formulated in the same manner.
(§4) Plants ranged in height from two to ten cm and were in the one- to two-leaf stage for the postemergence treatment. Treated plants and untreated controls were maintained in a greenhouse for approximately ten days, after which time all treated plants were compared to untreated controls and visually evaluated for injury. Plant response ratings, summarized in Table A, are based on a 0 to 100 scale where 0 is no effect and 100 is complete control. A dash (-) response means no test result.

[5] = system: velvetleaf (Abutilon theophrasti); assay: Test A pre-/postemergence plant response
Source text: as §3, §4

[6] = system: wheat (Triticum aestivum); assay: Test A pre-/postemergence plant response
Source text: as §3, §4

[7] = system: barnyardgrass (Echinochloa crus-galli); assay: Test A pre-/postemergence plant response
Source text: as §3, §4

[8] = system: pigweed (Amaranthus retroflexus); assay: Test A pre-/postemergence plant response
Source text: as §3, §4

[9] = system: morningglory (Ipomoea spp.); assay: Test A pre-/postemergence plant response
Source text: as §3, §4

corn (Zea mays) = assay: Test A pre-/postemergence plant response
Source text: as §3, §4

[10] = system: giant foxtail (Setaria faberii); assay: Test A pre-/postemergence plant response
Source text: as §3, §4

[11] = 62 g ai/ha, scale 0 to 100, 0 is no effect, 100 is complete control
[12] = Postemergence, 125 g ai/ha, visual injury, 0 to 100 scale (0 no effect, 100 complete control), approx. ten days
[13] = Postemergence, 500 g ai/ha, 0 to 100 scale, 0 = no effect, 100 = complete control, approx. ten days
[14] = Preemergence, 125 g ai/ha, 0 to 100 scale, 0 = no effect, 100 = complete control
[15] = Preemergence, 500 g ai/ha, visual injury, 0 to 100 scale (0 no effect, 100 complete control), approx. ten days
[16] = 31 g ai/ha, scale of 0 to 100 where 0 is no effect and 100 is complete control
[17] = 125 g ai/ha, scale 0 to 100, 0 is no effect, 100 is complete control

COc1ccccc1-n1c(-c2ccccc2)ncc(C(=O)C2=C(O)CCCC2=O)c1=O [Compound 15]
Plant response rating, Flood, Rice (rice (Oryza sativa)): 0 | Plant response rating, Rice (rice (Oryza sativa); [11]): 0 | Plant response rating, Flood, Ducksalad [1]: 60 | Plant response rating, Ducksalad [1, 11]: 0 | Plant response rating, Flood, Sedge, Umbrella [2]: 30 | Plant response rating, Sedge, Umbrella [2, 11]: 0 | Plant response rating, Flood, Barnyardgrass [3]: 35 | Plant response rating, Barnyardgrass [3, 11]: 20 | Crabgrass, Large plant response rating [4, 12]: 20 | Plant response rating, Crabgrass, Large [4, 13]: 70 | Plant response rating, Crabgrass, Large [4, 14]: 40 | Plant response rating, Crabgrass, Large [4, 15]: 90 | Velvetleaf plant response rating [5, 12]: 100 | Plant response rating, Velvetleaf [5, 13]: 100 | Plant response rating, Velvetleaf [5, 14]: 40 | Plant response rating, Velvetleaf [5, 15]: 90 | Wheat plant response rating [6, 12]: 0 | Plant response rating, Wheat [6, 13]: 20 | Plant response rating, Wheat [6, 14]: 0 | Plant response rating, Wheat [6, 15]: 20 | Barnyardgrass plant response rating [7, 12]: 10 | Plant response rating, Barnyardgrass [7, 13]: 40 | Plant response rating, Barnyardgrass [7, 14]: 10 | Plant response rating, Barnyardgrass [7, 15]: 90 | Pigweed plant response rating [8, 12]: 60 | Plant response rating, Pigweed [8, 13]: 90 | Plant response rating, Pigweed [8, 14]: 30 | Plant response rating, Pigweed [8, 15]: 90 | Morningglory plant response rating [9, 12]: 10 | Plant response rating, Morningglory [9, 13]: 50 | Plant response rating, Morningglory [9, 14]: 0 | Plant response rating, Morningglory [9, 15]: 60 | Corn plant response rating (corn (Zea mays); [12]): 0 | Plant response rating, Corn (corn (Zea mays); [13]): 10 | Plant response rating, Corn (corn (Zea mays); [14]): 0 | Plant response rating, Corn (corn (Zea mays); [15]): 0 | Foxtail, Giant plant response rating [10, 12]: 10 | Plant response rating, Foxtail, Giant [10, 13]: 70 | Plant response rating, Foxtail, Giant [10, 14]: 40 | Plant response rating, Foxtail, Giant [10, 15]: 70

Cc1cccc(-n2c(-c3ccccc3)ncc(C(=O)C3=C(O)CCCC3=O)c2=O)c1 [Compound 18]
Plant response rating, Flood, Rice (rice (Oryza sativa)): 25 | Plant response rating, Rice (rice (Oryza sativa); [16]): 10 | Plant response rating, Rice (rice (Oryza sativa); [11]): 15 | Plant response rating, Rice (rice (Oryza sativa); [17]): 25 | Plant response rating, Flood, Ducksalad [1]: 90 | Plant response rating, Ducksalad [1, 16]: 20 | Plant response rating, Ducksalad [1, 11]: 50 | Plant response rating, Ducksalad [1, 17]: 65 | Plant response rating, Flood, Sedge, Umbrella [2]: 85 | Plant response rating, Sedge, Umbrella [2, 16]: 0 | Plant response rating, Sedge, Umbrella [2, 11]: 30 | Plant response rating, Sedge, Umbrella [2, 17]: 50 | Plant response rating, Flood, Barnyardgrass [3]: 50 | Plant response rating, Barnyardgrass [3, 16]: 10 | Plant response rating, Barnyardgrass [3, 11]: 20 | Plant response rating, Barnyardgrass [3, 17]: 20 | Crabgrass, Large plant response rating [4, 12]: 30 | Plant response rating, Crabgrass, Large [4, 13]: 80 | Plant response rating, Crabgrass, Large [4, 14]: 60 | Plant response rating, Crabgrass, Large [4, 15]: 100 | Velvetleaf plant response rating [5, 12]: 100 | Plant response rating, Velvetleaf [5, 13]: 100 | Plant response rating, Velvetleaf [5, 14]: 30 | Plant response rating, Velvetleaf [5, 15]: 100 | Wheat plant response rating [6, 12]: 0 | Plant response rating, Wheat [6, 13]: 50 | Plant response rating, Wheat [6, 14]: 0 | Plant response rating, Wheat [6, 15]: 40 | Barnyardgrass plant response rating [7, 12]: 20 | Plant response rating, Barnyardgrass [7, 13]: 90 | Plant response rating, Barnyardgrass [7, 14]: 10 | Plant response rating, Barnyardgrass [7, 15]: 100 | Pigweed plant response rating [8, 12]: 100 | Plant response rating, Pigweed [8, 13]: 100 | Plant response rating, Pigweed [8, 14]: 70 | Plant response rating, Pigweed [8, 15]: 100 | Morningglory plant response rating [9, 12]: 40 | Plant response rating, Morningglory [9, 13]: 100 | Plant response rating, Morningglory [9, 14]: 20 | Plant response rating, Morningglory [9, 15]: 70 | Corn plant response rating (corn (Zea mays); [12]): 0 | Plant response rating, Corn (corn (Zea mays); [13]): 20 | Plant response rating, Corn (corn (Zea mays); [14]): 0 | Plant response rating, Corn (corn (Zea mays); [15]): 20 | Foxtail, Giant plant response rating [10, 12]: 40 | Plant response rating, Foxtail, Giant [10, 13]: 90 | Plant response rating, Foxtail, Giant [10, 14]: 40 | Plant response rating, Foxtail, Giant [10, 15]: 90

O=C1CCCC(O)=C1C(=O)c1cnc(-c2ccc(Cl)cc2)n(-c2ccccc2)c1=O [Compound 25]
Plant response rating, Flood, Rice (rice (Oryza sativa)): 0 | Plant response rating, Rice (rice (Oryza sativa); [11]): 0 | Plant response rating, Flood, Ducksalad [1]: 0 | Plant response rating, Ducksalad [1, 11]: 0 | Plant response rating, Flood, Sedge, Umbrella [2]: 0 | Plant response rating, Sedge, Umbrella [2, 11]: 0 | Plant response rating, Flood, Barnyardgrass [3]: 0 | Plant response rating, Barnyardgrass [3, 11]: 0 | Crabgrass, Large plant response rating [4, 12]: 40 | Plant response rating, Crabgrass, Large [4, 13]: 90 | Plant response rating, Crabgrass, Large [4, 14]: 60 | Plant response rating, Crabgrass, Large [4, 15]: 100 | Velvetleaf plant response rating [5, 12]: 100 | Plant response rating, Velvetleaf [5, 13]: 100 | Plant response rating, Velvetleaf [5, 14]: 80 | Plant response rating, Velvetleaf [5, 15]: 100 | Wheat plant response rating [6, 12]: 0 | Plant response rating, Wheat [6, 13]: 0 | Plant response rating, Wheat [6, 14]: 0 | Plant response rating, Wheat [6, 15]: 20 | Barnyardgrass plant response rating [7, 12]: 30 | Plant response rating, Barnyardgrass [7, 13]: 90 | Plant response rating, Barnyardgrass [7, 14]: 20 | Plant response rating, Barnyardgrass [7, 15]: 80 | Pigweed plant response rating [8, 12]: 80 | Plant response rating, Pigweed [8, 13]: 100 | Plant response rating, Pigweed [8, 14]: 50 | Plant response rating, Pigweed [8, 15]: 80 | Morningglory plant response rating [9, 12]: 50 | Plant response rating, Morningglory [9, 13]: 90 | Plant response rating, Morningglory [9, 14]: 0 | Plant response rating, Morningglory [9, 15]: 60 | Corn plant response rating (corn (Zea mays); [12]): 0 | Plant response rating, Corn (corn (Zea mays); [13]): 20 | Plant response rating, Corn (corn (Zea mays); [14]): 0 | Plant response rating, Corn (corn (Zea mays); [15]): 0 | Foxtail, Giant plant response rating [10, 12]: 50 | Plant response rating, Foxtail, Giant [10, 13]: 90 | Plant response rating, Foxtail, Giant [10, 14]: 50 | Plant response rating, Foxtail, Giant [10, 15]: 90

Cc1cccc(C)c1-n1c(-c2ccccc2)ncc(C(=O)C2=C(O)CCCC2=O)c1=O [Compound 31]
Plant response rating, Flood, Rice (rice (Oryza sativa)): 0 | Plant response rating, Rice (rice (Oryza sativa); [11]): 0 | Plant response rating, Flood, Ducksalad [1]: 75 | Plant response rating, Ducksalad [1, 11]: 60 | Plant response rating, Flood, Sedge, Umbrella [2]: 75 | Plant response rating, Sedge, Umbrella [2, 11]: 60 | Plant response rating, Flood, Barnyardgrass [3]: 0 | Plant response rating, Barnyardgrass [3, 11]: 0 | Crabgrass, Large plant response rating [4, 12]: 50 | Plant response rating, Crabgrass, Large [4, 13]: 90 | Plant response rating, Crabgrass, Large [4, 14]: 0 | Plant response rating, Crabgrass, Large [4, 15]: 90 | Velvetleaf plant response rating [5, 12]: 100 | Plant response rating, Velvetleaf [5, 13]: 100 | Plant response rating, Velvetleaf [5, 14]: 10 | Plant response rating, Velvetleaf [5, 15]: 70 | Wheat plant response rating [6, 12]: 0 | Plant response rating, Wheat [6, 13]: 0 | Plant response rating, Wheat [6, 14]: 0 | Plant response rating, Wheat [6, 15]: 0 | Barnyardgrass plant response rating [7, 12]: 10 | Plant response rating, Barnyardgrass [7, 13]: 80 | Plant response rating, Barnyardgrass [7, 14]: 0 | Plant response rating, Barnyardgrass [7, 15]: 40 | Pigweed plant response rating [8, 12]: 70 | Plant response rating, Pigweed [8, 13]: 100 | Plant response rating, Pigweed [8, 14]: 40 | Plant response rating, Pigweed [8, 15]: 80 | Morningglory plant response rating [9, 12]: 20 | Plant response rating, Morningglory [9, 13]: 70 | Plant response rating, Morningglory [9, 14]: 0 | Plant response rating, Morningglory [9, 15]: 50 | Corn plant response rating (corn (Zea mays); [12]): 0 | Plant response rating, Corn (corn (Zea mays); [13]): 20 | Plant response rating, Corn (corn (Zea mays); [14]): 0 | Plant response rating, Corn (corn (Zea mays); [15]): 0 | Foxtail, Giant plant response rating [10, 12]: 70 | Plant response rating, Foxtail, Giant [10, 13]: 90 | Plant response rating, Foxtail, Giant [10, 14]: 0 | Plant response rating, Foxtail, Giant [10, 15]: 40
